The values that follow are results of earlier work, collected in patent US6303761A, “Triaminepentaacetic acid compound and paramagnetic metal complex prepared from using the compound as ligand” (Department of Health The Executive Yuan, Republic of China, priority 1999, dated 2001).

For this data set the following is noted: cited from earlier work.

With `[Cl][Gd]([Cl])[Cl]` [GdCl3, gadolinium chloride], where the note is “intravenously injected to animal bodies”, the “LD50, intravenous, animal” value is 0.3 to 0.5 mmol/kg.

As to “N,N-bis(2-pyridylmethyl)diethylenetriamine-N,N',N"-triacetate-gadolinium(III) [[Gd(DTPA-BP)]]”, the LD50 (in vivo) is 3.2 mmol/kg.

As a reminder, the LD50 is the dose expected to kill half of the subjects tested.
